Results from the supplement of paper PMC13207355.
Where a name gives a salt, the structure may show the parent alone.

Legend:
Conditions in all cases: exposure time: 72 h
[1] = system: E28 (patient-derived glioblastoma stem cells of classical subtype); test: phenotypic distance (Euclidean, principal components) from DMSO controls (arbitrary units); higher = stronger morphological change
[2] = system: FT3469 (normal neural stem cell line); test: as above
[3] = system: E21 (patient-derived glioblastoma stem cells of mesenchymal subtype); test: as above
[4] = system: E34 (patient-derived glioblastoma stem cells of proneural subtype); test: as above
[5] = system: E13 (patient-derived glioblastoma stem cells of classical subtype); test: as above
[6] = system: E57 (patient-derived glioblastoma stem cells of mesenchymal subtype); test: as above
[7] = system: E31 (patient-derived glioblastoma stem cells of proneural subtype); test: as above
[8] = system: E28; test: surviving fraction (nuclei count normalised to DMSO); higher = more cells surviving (less toxic)
[9] = system: FT3469; test: as above
[10] = system: E21; test: as above
[11] = system: E34; test: as above
[12] = system: E13; test: as above
[13] = system: E57; test: as above
[14] = system: E31; test: as above
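Throughout, for phenotypic distance (Euclidean, principal components) from DMSO controls: cell Painting imaging in 384-well plates, CellProfiler features reduced to at least 20 principal components, Euclidean distance versus same-plate DMSO vehicle wells (0.1% v/v), median over six images per well.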
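Throughout, for surviving fraction (nuclei count normalised to DMSO): nuclei counted by high-content imaging of Hoechst-stained cells in laminin-coated 384-well plates, relative to 0.1% DMSO vehicle wells, with staurosporine as cell-death control.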

CC(C)NCC(O)c1cc(O)cc(O)c1 (stereo unspecified) [Metaproterenol sulfate, orciprenaline sulfate]
Conditions | phenotypic distance | surviving fraction
[1], 4.1 nM | 0.775 | –
[1], 12.3 nM | 0.464 | –
[1], 37 nM | 0.677 | –
[1], 111.1 nM | 0.689 | –
[1], 333.3 nM | 1.06 | –
[1], 1000 nM | 0.558 | –
[1], 3000 nM | 0.934 | –
[2], 4.1 nM | 1.07 | –
[2], 12.3 nM | 1.13 | –
[2], 37 nM | 0.697 | –
[2], 111.1 nM | 0.559 | –
[2], 333.3 nM | 0.916 | –
[2], 1000 nM | 1.01 | –
[2], 3000 nM | 1.08 | –
[3], 4.1 nM | 0.506 | –
[3], 12.3 nM | 0.541 | –
[3], 37 nM | 0.821 | –
[3], 111.1 nM | 2.96 | –
[3], 333.3 nM | 0.869 | –
[3], 1000 nM | 0.684 | –
[3], 3000 nM | 0.751 | –
[4], 4.1 nM | 0.654 | –
[4], 12.3 nM | 0.671 | –
[4], 37 nM | 0.473 | –
[4], 111.1 nM | 0.805 | –
[4], 333.3 nM | 0.747 | –
[4], 1000 nM | 0.882 | –
[4], 3000 nM | 0.769 | –
[5], 4.1 nM | 0.452 | –
[5], 12.3 nM | 0.546 | –
[5], 37 nM | 0.581 | –
[5], 111.1 nM | 0.458 | –
[5], 333.3 nM | 0.743 | –
[5], 1000 nM | 0.439 | –
[5], 3000 nM | 0.72 | –
[6], 4.1 nM | 0.966 | –
[6], 12.3 nM | 0.872 | –
[6], 37 nM | 0.874 | –
[6], 111.1 nM | 0.737 | –
[6], 333.3 nM | 1 | –
[6], 1000 nM | 0.774 | –
[6], 3000 nM | 0.716 | –
[7], 4.1 nM | 0.663 | –
[7], 12.3 nM | 0.455 | –
[7], 37 nM | 0.562 | –
[7], 111.1 nM | 0.625 | –
[7], 333.3 nM | 0.672 | –
[7], 1000 nM | 0.447 | –
[7], 3000 nM | 0.615 | –
[8], 4.1 nM | – | 1.2
[8], 12.3 nM | – | 1.1
[8], 37 nM | – | 1.06
[8], 111.1 nM | – | 1.14
[8], 333.3 nM | – | 1.21
[8], 1000 nM | – | 1.04
[8], 3000 nM | – | 1.13
[9], 4.1 nM | – | 1.18
[9], 12.3 nM | – | 1.32
[9], 37 nM | – | 1.05
[9], 111.1 nM | – | 1.14
[9], 333.3 nM | – | 1.13
[9], 1000 nM | – | 1.04
[9], 3000 nM | – | 1.22
[10], 4.1 nM | – | 1
[10], 12.3 nM | – | 0.995
[10], 37 nM | – | 1.01
[10], 111.1 nM | – | 1.05
[10], 333.3 nM | – | 1.13
[10], 1000 nM | – | 1.02
[10], 3000 nM | – | 1.07
[11], 4.1 nM | – | 0.922
[11], 12.3 nM | – | 1.02
[11], 37 nM | – | 1.04
[11], 111.1 nM | – | 0.924
[11], 333.3 nM | – | 1.02
[11], 1000 nM | – | 1.24
[11], 3000 nM | – | 0.961
[12], 4.1 nM | – | 0.979
[12], 12.3 nM | – | 0.957
[12], 37 nM | – | 1.06
[12], 111.1 nM | – | 0.933
[12], 333.3 nM | – | 1.06
[12], 1000 nM | – | 0.995
[12], 3000 nM | – | 1.06
[13], 4.1 nM | – | 1.18
[13], 12.3 nM | – | 1.11
[13], 37 nM | – | 1.14
[13], 111.1 nM | – | 0.953
[13], 333.3 nM | – | 1.07
[13], 1000 nM | – | 1.18
[13], 3000 nM | – | 1.02
[14], 4.1 nM | – | 0.982
[14], 12.3 nM | – | 1.02
[14], 37 nM | – | 0.984
[14], 111.1 nM | – | 1.14
[14], 333.3 nM | – | 1.02
[14], 1000 nM | – | 1.13
[14], 3000 nM | – | 1.03

OC[C@H]1O[C@@H](Oc2ccc(O)cc2)[C@H](O)[C@@H](O)[C@@H]1O [Arbutin]
Conditions | phenotypic distance | surviving fraction
[1], 4.1 nM | 0.41 | –
[1], 12.3 nM | 0.873 | –
[1], 37 nM | 0.666 | –
[1], 111.1 nM | 1.1 | –
[1], 333.3 nM | 0.543 | –
[1], 1000 nM | 0.716 | –
[1], 3000 nM | 0.531 | –
[2], 4.1 nM | 0.247 | –
[2], 12.3 nM | 0.982 | –
[2], 37 nM | 0.795 | –
[2], 111.1 nM | 1.03 | –
[2], 333.3 nM | 0.636 | –
[2], 1000 nM | 1.1 | –
[2], 3000 nM | 0.991 | –
[3], 4.1 nM | 0.434 | –
[3], 12.3 nM | 1.06 | –
[3], 37 nM | 0.902 | –
[3], 111.1 nM | 0.857 | –
[3], 333.3 nM | 0.484 | –
[3], 1000 nM | 0.568 | –
[3], 3000 nM | 0.491 | –
[4], 4.1 nM | 0.689 | –
[4], 12.3 nM | 0.94 | –
[4], 37 nM | 0.434 | –
[4], 111.1 nM | 0.454 | –
[4], 333.3 nM | 0.675 | –
[4], 1000 nM | 0.496 | –
[4], 3000 nM | 1.12 | –
[5], 4.1 nM | 0.566 | –
[5], 12.3 nM | 0.859 | –
[5], 37 nM | 0.511 | –
[5], 111.1 nM | 0.508 | –
[5], 333.3 nM | 0.829 | –
[5], 1000 nM | 0.191 | –
[5], 3000 nM | 0.813 | –
[6], 4.1 nM | 0.568 | –
[6], 12.3 nM | 0.753 | –
[6], 37 nM | 0.629 | –
[6], 111.1 nM | 0.522 | –
[6], 333.3 nM | 0.897 | –
[6], 1000 nM | 0.4 | –
[6], 3000 nM | 0.484 | –
[7], 4.1 nM | 0.898 | –
[7], 12.3 nM | 0.639 | –
[7], 37 nM | 0.606 | –
[7], 111.1 nM | 0.754 | –
[7], 333.3 nM | 0.505 | –
[7], 1000 nM | 0.754 | –
[7], 3000 nM | 0.805 | –
[8], 4.1 nM | – | 1.1
[8], 12.3 nM | – | 1.03
[8], 37 nM | – | 1.07
[8], 111.1 nM | – | 1.15
[8], 333.3 nM | – | 1.07
[8], 1000 nM | – | 1.07
[8], 3000 nM | – | 0.905
[9], 4.1 nM | – | 1.08
[9], 12.3 nM | – | 0.99
[9], 37 nM | – | 1.28
[9], 111.1 nM | – | 0.987
[9], 333.3 nM | – | 1.18
[9], 1000 nM | – | 1.16
[9], 3000 nM | – | 0.993
[10], 4.1 nM | – | 1.03
[10], 12.3 nM | – | 0.989
[10], 37 nM | – | 1.07
[10], 111.1 nM | – | 0.916
[10], 333.3 nM | – | 1.05
[10], 1000 nM | – | 0.971
[10], 3000 nM | – | 0.967
[11], 4.1 nM | – | 0.904
[11], 12.3 nM | – | 1.15
[11], 37 nM | – | 1.05
[11], 111.1 nM | – | 1.02
[11], 333.3 nM | – | 1.08
[11], 1000 nM | – | 1.02
[11], 3000 nM | – | 0.848
[12], 4.1 nM | – | 1.01
[12], 12.3 nM | – | 1.04
[12], 37 nM | – | 0.905
[12], 111.1 nM | – | 0.917
[12], 333.3 nM | – | 0.929
[12], 1000 nM | – | 1.04
[12], 3000 nM | – | 0.991
[13], 4.1 nM | – | 0.949
[13], 12.3 nM | – | 0.993
[13], 37 nM | – | 1.11
[13], 111.1 nM | – | 0.918
[13], 333.3 nM | – | 1.07
[13], 1000 nM | – | 1
[13], 3000 nM | – | 1
[14], 4.1 nM | – | 0.937
[14], 12.3 nM | – | 0.846
[14], 37 nM | – | 0.945
[14], 111.1 nM | – | 0.889
[14], 333.3 nM | – | 1.05
[14], 1000 nM | – | 1.13
[14], 3000 nM | – | 0.884
